Measured values reported in PMC11864979, “First-in-class ultralong-target-residence-time p38α inhibitors as a mitosis-targeted therapy for colorectal cancer” (Nature Cancer, 2025).
Like-named read-outs stand apart in the source and are kept apart here.

Assays:
Experiment in all cases: selectivity profiling in a panel of 340 wild-type kinases (Reaction Biology Europe)
Format in all cases: binding
[1] = target: T1, 340 wild-type kinases (Homo sapiens, UniProt P54760)
T1 construct: purchased Reaction Biology Europe
T1 sequence (P54760 16-987): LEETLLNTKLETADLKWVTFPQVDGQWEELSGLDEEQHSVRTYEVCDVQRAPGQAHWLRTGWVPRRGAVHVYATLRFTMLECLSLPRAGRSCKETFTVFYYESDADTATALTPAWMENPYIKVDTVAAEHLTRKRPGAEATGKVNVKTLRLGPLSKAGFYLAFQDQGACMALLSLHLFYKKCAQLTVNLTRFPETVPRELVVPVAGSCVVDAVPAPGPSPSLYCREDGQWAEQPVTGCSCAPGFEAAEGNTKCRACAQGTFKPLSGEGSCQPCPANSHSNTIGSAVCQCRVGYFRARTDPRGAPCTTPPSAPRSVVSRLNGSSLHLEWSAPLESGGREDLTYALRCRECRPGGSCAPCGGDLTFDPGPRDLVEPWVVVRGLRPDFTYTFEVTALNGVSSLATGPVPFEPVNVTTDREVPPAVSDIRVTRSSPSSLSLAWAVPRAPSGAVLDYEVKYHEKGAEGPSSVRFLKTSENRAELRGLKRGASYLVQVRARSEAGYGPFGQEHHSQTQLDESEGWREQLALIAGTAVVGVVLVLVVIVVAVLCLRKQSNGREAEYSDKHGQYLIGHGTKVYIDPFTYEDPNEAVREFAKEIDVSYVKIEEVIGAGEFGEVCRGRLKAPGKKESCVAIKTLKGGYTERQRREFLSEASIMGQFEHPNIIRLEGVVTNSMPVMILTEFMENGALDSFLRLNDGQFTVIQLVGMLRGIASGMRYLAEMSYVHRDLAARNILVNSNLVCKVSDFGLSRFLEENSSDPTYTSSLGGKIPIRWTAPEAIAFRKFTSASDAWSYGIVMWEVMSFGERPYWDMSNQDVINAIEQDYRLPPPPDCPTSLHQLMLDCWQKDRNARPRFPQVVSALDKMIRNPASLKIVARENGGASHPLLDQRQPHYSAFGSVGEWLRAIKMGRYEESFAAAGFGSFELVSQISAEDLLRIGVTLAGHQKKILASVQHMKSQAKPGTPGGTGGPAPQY

[2] = target: T2, 340 wild-type kinases (Homo sapiens, UniProt Q8IZL9)
T2 construct: purchased Reaction Biology Europe

[3] = target: T3, 340 wild-type kinases (Homo sapiens, UniProt P49674)
T3 construct: purchased Reaction Biology Europe

[4] = target: T4, 340 wild-type kinases (Homo sapiens, UniProt P21709)
T4 construct: purchased Reaction Biology Europe
T4 sequence (P21709 26-976): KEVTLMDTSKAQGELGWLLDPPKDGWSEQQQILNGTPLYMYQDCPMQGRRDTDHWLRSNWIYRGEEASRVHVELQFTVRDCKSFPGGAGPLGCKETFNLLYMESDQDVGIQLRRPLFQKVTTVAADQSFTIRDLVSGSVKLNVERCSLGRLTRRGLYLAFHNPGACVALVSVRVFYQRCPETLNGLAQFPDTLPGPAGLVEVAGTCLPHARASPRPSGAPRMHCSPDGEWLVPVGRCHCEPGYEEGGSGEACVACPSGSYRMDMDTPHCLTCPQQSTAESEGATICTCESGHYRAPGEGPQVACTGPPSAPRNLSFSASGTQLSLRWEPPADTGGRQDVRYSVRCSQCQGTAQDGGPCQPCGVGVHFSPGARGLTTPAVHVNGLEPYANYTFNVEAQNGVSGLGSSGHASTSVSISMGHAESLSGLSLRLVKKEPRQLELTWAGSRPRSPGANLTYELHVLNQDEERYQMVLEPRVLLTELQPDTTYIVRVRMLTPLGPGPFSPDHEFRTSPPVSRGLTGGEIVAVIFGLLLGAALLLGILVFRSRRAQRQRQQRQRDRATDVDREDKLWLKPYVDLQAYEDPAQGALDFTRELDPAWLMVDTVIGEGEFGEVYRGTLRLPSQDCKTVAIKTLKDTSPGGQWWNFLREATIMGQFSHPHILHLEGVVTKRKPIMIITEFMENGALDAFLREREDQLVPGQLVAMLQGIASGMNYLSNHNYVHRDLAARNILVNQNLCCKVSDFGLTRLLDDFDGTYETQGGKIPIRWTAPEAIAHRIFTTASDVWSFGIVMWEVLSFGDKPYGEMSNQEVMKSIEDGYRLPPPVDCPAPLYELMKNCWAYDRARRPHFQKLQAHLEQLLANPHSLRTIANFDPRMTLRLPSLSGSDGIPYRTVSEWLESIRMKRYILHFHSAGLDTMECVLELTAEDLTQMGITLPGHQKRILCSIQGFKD

T3 sequence (P49674 whole entry): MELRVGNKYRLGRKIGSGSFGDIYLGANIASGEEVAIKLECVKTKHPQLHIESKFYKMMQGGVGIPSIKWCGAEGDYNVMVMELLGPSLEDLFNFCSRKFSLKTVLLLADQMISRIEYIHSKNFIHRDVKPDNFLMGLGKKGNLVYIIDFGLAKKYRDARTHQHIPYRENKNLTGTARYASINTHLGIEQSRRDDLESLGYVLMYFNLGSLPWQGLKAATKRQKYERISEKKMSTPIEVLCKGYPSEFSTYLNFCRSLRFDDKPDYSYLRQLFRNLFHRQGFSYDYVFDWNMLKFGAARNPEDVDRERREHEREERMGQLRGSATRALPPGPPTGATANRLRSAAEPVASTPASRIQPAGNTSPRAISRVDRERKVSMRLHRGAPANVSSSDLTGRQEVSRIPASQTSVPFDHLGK
T2 sequence (Q8IZL9 whole entry): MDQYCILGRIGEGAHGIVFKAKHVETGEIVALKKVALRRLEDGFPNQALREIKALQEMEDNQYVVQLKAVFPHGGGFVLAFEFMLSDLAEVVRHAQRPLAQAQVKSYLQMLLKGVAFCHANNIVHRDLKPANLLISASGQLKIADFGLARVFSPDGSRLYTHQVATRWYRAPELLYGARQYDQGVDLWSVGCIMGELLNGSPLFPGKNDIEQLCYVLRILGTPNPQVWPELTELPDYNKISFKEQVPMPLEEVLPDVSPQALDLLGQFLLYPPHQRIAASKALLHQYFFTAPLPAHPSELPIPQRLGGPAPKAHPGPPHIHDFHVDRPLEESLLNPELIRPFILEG

CNC(=O)c1ccc2c(c1)C(=O)c1ccc(Nc3ccc(F)c(NC(=O)C4CC4)c3)cc1CC2 [Compound 2015]
remaining activity at 0.2 µM ([1]; 0.2 µM 2015, read-out: EPHB4 residual activity): 101% | remaining activity at 1 µM ([1]; 1 µM 2015, read-out: EPHB4 residual activity): 91.8% | remaining activity at 0.2 µM ([1]; EPHB4, 0.2 µM, read-out: residual activity): 101% | remaining activity at 1 µM ([1]; EPHB4, 1 µM, read-out: residual activity): 91.8% | remaining activity at 0.2 µM ([2]; 0.2 µM 2015, read-out: CDK20/CycH residual activity): 107% | remaining activity at 0.2 µM ([2]; 0.2 µM 2015, read-out: CDK20/CycT1 residual activity): 103% | remaining activity at 1 µM ([2]; 1 µM 2015, read-out: CDK20/CycH residual activity): 97.2% | remaining activity at 1 µM ([2]; 1 µM 2015, read-out: CDK20/CycT1 residual activity): 96.3% | remaining activity at 0.2 µM ([2]; CDK20/CycH, 0.2 µM, read-out: residual activity): 107% | remaining activity at 1 µM ([2]; CDK20/CycH, 1 µM, read-out: residual activity): 97.2% | remaining activity at 0.2 µM ([2]; CDK20/CycT1, 0.2 µM, read-out: residual activity): 103% | remaining activity at 1 µM ([2]; CDK20/CycT1, 1 µM, read-out: residual activity): 96.3% | remaining activity at 0.2 µM ([3]; 0.2 µM 2015, read-out: CK1epsilon residual activity): 114% | remaining activity at 1 µM ([3]; 1 µM 2015, read-out: CK1epsilon residual activity): 111% | remaining activity at 0.2 µM ([3]; CK1epsilon, 0.2 µM, read-out: residual activity): 114% | remaining activity at 1 µM ([3]; CK1epsilon, 1 µM, read-out: residual activity): 111% | remaining activity at 0.2 µM ([4]; 0.2 µM 2015, read-out: EPHA1 residual activity): 87.2% | remaining activity at 1 µM ([4]; 1 µM 2015, read-out: EPHA1 residual activity): 82.1% | remaining activity at 0.2 µM ([4]; EPHA1, 0.2 µM, read-out: residual activity): 87.2% | remaining activity at 1 µM ([4]; EPHA1, 1 µM, read-out: residual activity): 82.1%
